In one assay the test system is Aβ42. As to the kind of experiment: In vitro cell screening assay in H4 cells expressing human APP751: Aβ42 by sandwich ELISA. Format: cell-based. Particulars: Homo sapiens, compounds 0.003-10 μM, incubated overnight (16-18 h), sandwich ELISA of supernatant. The protocol: Human neuroglioma H4 cells were transfected with a pcDNA3.1 plasmid expressing human wild type APP751 cDNA and a stable cell line was generated using G418 selection. Cells were plated at 15,000 cells/well in Costar 96-well plates and placed at 37° C. and 5% CO2. Six hours after plating, cells were washed three times with Pro293™ chemically defined medium, followed by addition of compounds (0.003-10 μM, final DMSO concentration of 0.33%). Plates were incubated overnight (16-18 h) and supernatant was removed for quantification of Aβ peptides by sandwich ELISA. Cytotoxicity was evaluated using Cell-Titer 96W AQueous One Solution Cell Proliferation Assay according to the manufacturer's protocol.
Aβ peptide levels were quantified by sandwich ELISA. 96-well plates were coated with C-terminal specific Aβ antibodies recognizing either Aβ37, Aβ38, Aβ40, Aβ42, Aβ43 or a N-terminal specific Aβ antibody to detect Aβ 1-x. Plates were then blocked overnight at 4° C. with 1% bovine serum albumin (BSA) in PBS-T. Plates were washed and 100 μl of cultured cell supernatant or synthetic Aβ peptide standards and a detection antibody (4G8-HRP) were applied to the blocked plate and incubated overnight at 4° C. The next day, wells were washed before the addition of detection substrate (TMB peroxidase). Plates were then read for absorbance at 450 nm on a Molecular Devices SpectraMax M5e Microplate Reader.
Compound-treated samples were normalized to samples treated with DMSO alone (no inhibition) and to samples treated with DAPT. EC50 values were calculated from values reported as percent of DMSO controls using nonlinear regression, based on a sigmoidal dose response (variable slope) model. GraphPAD software from Prism used for calculation.
A general note: In an ELISA, binding on a coated surface is turned into a signal by an enzyme label.
The EC50 is the concentration needed to bring the measured effect to its halfway point. High values mean a need for much substance, low ones an effect from little substance. `COc1nc(C2=NOCC(C3CCC(F)(F)CC3)N2)ccc1-n1cnc(C)c1` (single isomer, unassigned; (+)) [Example 139B, (+)-5-(4,4-difluorocyclohexyl)-3-(6-methoxy-5-(4-methyl-1H-imidazol-1-yl)pyridin-2-yl)-5,6-dihydro-4H-1,2,4-oxadiazine]: the midpoint of the response, the EC50, lay at 201 nM.

Staying with this assay, now noted: compounds 0.003-10 μM, incubated overnight (16-18 h), sandwich ELISA of supernatant.
On to `CCn1cc(C2CON=C(c3ccc(-n4cnc(C)c4)c(OC)n3)N2)c2cc(Cl)c(F)cc21` (single isomer, unassigned; (+)) [Example 73B, (+)-5-(5-chloro-1-ethyl-6-fluoro-1H-indol-3-yl)-3-(6-methoxy-5-(4-methyl-1H-imidazol-1-yl)pyridin-2-yl)-5,6-dihydro-4H-1,2,4-oxadiazine], for which the EC50 was 3.9 nM.

Take `COc1nc(C2=NOCC(c3ccc(F)c(F)c3)N2)ccc1-n1cnc(C)c1` (single isomer, unassigned; (+)) [Example 75B, (+)-5-(3,4-difluorophenyl)-3-(6-methoxy-5-(4-methyl-1H-imidazol-1-yl)pyridin-2-yl)-5,6-dihydro-4H-1,2,4-oxadiazine]: a half-maximal response (EC50) required 92.2 nM.

`COc1nc(C2=NOCC(c3cc4ccc(Cl)cc4o3)N2)ccc1-n1cnc(C)c1` (single isomer, unassigned; (+)) [Example 78B, (+)-5-(6-chlorobenzofuran-2-yl)-3-(6-methoxy-5-(4-methyl-1H-imidazol-1-yl)pyridin-2-yl)-5,6-dihydro-4H-1,2,4-oxadiazine] displayed an EC50 of 8.9 nM.

Take `COc1nc(C2=NOCC(c3cc(F)cc(F)c3)N2)ccc1-n1cnc(C)c1` (single isomer, unassigned; (+)) [Example 81B, (+)-5-(3,5-difluorophenyl)-3-(6-methoxy-5-(4-methyl-1H-imidazol-1-yl)pyridin-2-yl)-5,6-dihydro-4H-1,2,4-oxadiazine]: the EC50 amounted to 43.1 nM.

`COc1nc(C2=NOCC(c3cc4cc(F)ccc4o3)N2)ccc1-n1cnc(C)c1` (single isomer, unassigned; (+)) [Example 84B, (+)-5-(5-fluorobenzofuran-2-yl)-3-(6-methoxy-5-(4-methyl-1H-imidazol-1-yl)pyridin-2-yl)-5,6-dihydro-4H-1,2,4-oxadiazine] had an EC50 of 29.7 nM.

In turn, `COc1nc(C2=NOCC(c3ccc(Cl)c(C)c3)N2)ccc1-n1cnc(C)c1` (single isomer, unassigned; (+)) [Example 86B, (+)-5-(4-chloro-3-methylphenyl)-3-(6-methoxy-5-(4-methyl-1H-imidazol-1-yl)pyridin-2-yl)-5,6-dihydro-4H-1,2,4-oxadiazine] showed an EC50 of 10.4 nM.

Regarding `COc1nc(C2=NOCC(c3cc4cccc(F)c4o3)N2)ccc1-n1cnc(C)c1` (single isomer, unassigned; (+)) [Example 89B, (+)-5-(7-fluorobenzofuran-2-yl)-3-(6-methoxy-5-(4-methyl-1H-imidazol-1-yl)pyridin-2-yl)-5,6-dihydro-4H-1,2,4-oxadiazine], the EC50 came out at 44.2 nM.

As for `COc1nc(C2=NOCC(c3cc(F)c(F)c(F)c3)N2)ccc1-n1cnc(C)c1` (single isomer, unassigned; (+)) [Example 91B, (+)-3-(6-methoxy-5-(4-methyl-1H-imidazol-1-yl)pyridin-2-yl)-5-(3,4,5-trifluorophenyl)-5,6-dihydro-4H-1,2,4-oxadiazine], the EC50 was found to be 36.5 nM.

Consider `COc1nc(C2=NOCC(c3ccc(OC(F)F)cc3)N2)ccc1-n1cnc(C)c1` (single isomer, unassigned; (+)) [Example 93B, (+)-5-(4-(difluoromethoxy)phenyl)-3-(6-methoxy-5-(4-methyl-1H-imidazol-1-yl)pyridin-2-yl)-5,6-dihydro-4H-1,2,4-oxadiazine], for which the EC50 is 73 nM.

In the case of `COc1nc(C2=NOCC(c3cc4c(Cl)cccc4o3)N2)ccc1-n1cnc(C)c1` (single isomer, unassigned; (+)) [Example 96B, (+)-5-(4-chlorobenzofuran-2-yl)-3-(6-methoxy-5-(4-methyl-1H-imidazol-1-yl)pyridin-2-yl)-5,6-dihydro-4H-1,2,4-oxadiazine], the EC50 is 12.7 nM.

`COc1nc(C2=NOCC(c3cc4c(F)cccc4o3)N2)ccc1-n1cnc(C)c1` (single isomer, unassigned; (+)) [Example 99A, (+)-5-(4-fluorobenzofuran-2-yl)-3-(6-methoxy-5-(4-methyl-1H-imidazol-1-yl)pyridin-2-yl)-5,6-dihydro-4H-1,2,4-oxadiazine] had an EC50 of 856 nM.

In the case of `COc1nc(C2=NOCC(c3oc4ccc(F)cc4c3C)N2)ccc1-n1cnc(C)c1` (single isomer, unassigned; (+)) [Example 101B, (+)-5-(5-fluoro-3-methylbenzofuran-2-yl)-3-(6-methoxy-5-(4-methyl-1H-imidazol-1-yl)pyridin-2-yl)-5,6-dihydro-4H-1,2,4-oxadiazine], the midpoint of the response, the EC50, lay at 10.8 nM.

For the molecule `COc1nc(C2=NOCC(c3cn(C)c4cc(F)c(C(F)(F)F)cc34)N2)ccc1-n1cnc(C)c1` (single isomer, unassigned; (+)) [Example 104B, (+)-5-(6-fluoro-1-methyl-5-(trifluoromethyl)-1H-indol-3-yl)-3-(6-methoxy-5-(4-methyl-1H-imidazol-1-yl)pyridin-2-yl)-5,6-dihydro-4H-1,2,4-oxadiazine], a half-maximal response (EC50) required 4.6 nM.

For `COc1nc(C2=NOCC(c3ccc(Cl)c(F)c3)N2)ccc1-n1cnc(C)c1` (single isomer, unassigned; (+)) [Example 106B, (+)-5-(4-chloro-3-fluorophenyl)-3-(6-methoxy-5-(4-methyl-1H-imidazol-1-yl)pyridin-2-yl)-5,6-dihydro-4H-1,2,4-oxadiazine], the EC50 was determined as 22.9 nM.

`COc1nc(C2=NOCC(c3ccc(F)c(Cl)c3)N2)ccc1-n1cnc(C)c1` (single isomer, unassigned; (+)) [Example 108B, (+)-5-(3-chloro-4-fluorophenyl)-3-(6-methoxy-5-(4-methyl-1H-imidazol-1-yl)pyridin-2-yl)-5,6-dihydro-4H-1,2,4-oxadiazine] gave an EC50 of 23.2 nM.

`COc1nc(C2=NOCC(c3cc(F)cc(Cl)c3)N2)ccc1-n1cnc(C)c1` (single isomer, unassigned; (+)) [Example 111B, (+)-5-(3-chloro-5-fluorophenyl)-3-(6-methoxy-5-(4-methyl-1H-imidazol-1-yl)pyridin-2-yl)-5,6-dihydro-4H-1,2,4-oxadiazine]: a half-maximal response (EC50) required 22.6 nM.

Regarding `COc1nc(C2=NOCC(c3cccc(C(F)(F)F)c3)N2)ccc1-n1cnc(C)c1` (single isomer, unassigned; (+)) [Example 113B, (+)-3-(6-methoxy-5-(4-methyl-1H-imidazol-1-yl)pyridin-2-yl)-5-(3-(trifluoromethyl)phenyl)-5,6-dihydro-4H-1,2,4-oxadiazine], a half-maximal response (EC50) required 43 nM.

With `COc1nc(C2=NOCC(c3ccc(C4CC4)cc3)N2)ccc1-n1cnc(C)c1` (single isomer, unassigned; (+)) [Example 116B, (+)-5-(4-cyclopropylphenyl)-3-(6-methoxy-5-(4-methyl-1H-imidazol-1-yl)pyridin-2-yl)-5,6-dihydro-4H-1,2,4-oxadiazine], the midpoint of the response, the EC50, lay at 38.8 nM.

Consider `COc1nc(C2=NOCC(c3cc(Cl)cc(Cl)c3)N2)ccc1-n1cnc(C)c1` (single isomer, unassigned; (+)) [Example 118B, (+)-5-(3,5-dichlorophenyl)-3-(6-methoxy-5-(4-methyl-1H-imidazol-1-yl)pyridin-2-yl)-5,6-dihydro-4H-1,2,4-oxadiazine], for which the EC50 is 9.9 nM.

On to `COc1nc(C2=NOCC(c3nn(C)c4ccccc34)N2)ccc1-n1cnc(C)c1` (single isomer, unassigned; (+)) [Example 124B, (+)-3-(6-methoxy-5-(4-methyl-1H-imidazol-1-yl)pyridin-2-yl)-5-(1-methyl-1H-indazol-3-yl)-5,6-dihydro-4H-1,2,4-oxadiazine], for which a half-maximal effect (EC50) was put at 54.8 nM.

With `COc1nc(C2=NOCC(c3cccc(C4CC4)c3)N2)ccc1-n1cnc(C)c1` (single isomer, unassigned; (+)) [Example 127B, (+)-5-(3-cyclopropylphenyl)-3-(6-methoxy-5-(4-methyl-1H-imidazol-1-yl)pyridin-2-yl)-5,6-dihydro-4H-1,2,4-oxadiazine], the EC50 worked out at 23 nM.

For `COc1nc(C2=NOCC(c3ccccc3C)N2)ccc1-n1cnc(C)c1` (single isomer, unassigned; (+)) [Example 131A, (+)-3-(6-methoxy-5-(4-methyl-1H-imidazol-1-yl)pyridin-2-yl)-5-(o-tolyl)-5,6-dihydro-4H-1,2,4-oxadiazine], the concentration for a half-maximal effect (EC50) stood at 102 nM.

Take `COc1nc(C2=NOCC(c3cccc(C#N)c3)N2)ccc1-n1cnc(C)c1` (single isomer, unassigned; (+)) [Example 141B, (+)-3-(3-(6-methoxy-5-(4-methyl-1H-imidazol-1-yl)pyridin-2-yl)-5,6-dihydro-4H-1,2,4-oxadiazin-5-yl) benzonitrile]: the EC50 is 214 nM.

These data come from patent US9802927B2, “Oxadiazine compounds and methods of use thereof” (Denali Therapeutics, Inc., priority 2015, dated 2017).
